{
  "source": "patent US12678451B2",
  "about": "“Cannabinoid and omega fatty acid compositions and methods of using” (GreenWay Herbal Products, LLC, priority 2019, dated 2026)",
  "key": {"[1]": {"test_system": "cytokine levels in differentiated THP-1 cells treated with LPS", "experiment": "THP-1 human cellular LPS cytokine assay, three independent experiments, total averaged suppression", "details": "Homo sapiens, THP-1, 4 h, read-out: % Cytokine Suppression (total averaged)", "method": "Cells were seeded onto 24-, or 12-well plates and incubated for 48 hours to 72 hours to allow for differentiation. […] Supernatants were collected for quantification of human cytokine levels to assess the cytokine response. Cells remaining after the supernatant collection were tested to ensure they had at least 90% viability as determined by Alamar Blue assays. To conduct the Alamar Blue assays, supernatants were replaced with culture medium containing 1× Alamar Blue reagent and incubated overnight. Cell viability was assessed by measuring relative fluorescent units (RFU) on the SpectraMax M2e microplate reader (Molecular Devices Inc., Sunnyvale, Calif., USA) at Excitation 560 nm and Emission 590 nm. Controls included untreated cells with DMSO at the same concentration as the treated cells, LPS stimulated cells with DMSO at the same concentration as the treated cells and LPS stimulated cell with the various treatments. The levels of 42 of the most common human cytokines (Eve Technologies, Calgary, Canada Table 6) were determined by multi-plex analysis.\nFor this reason, the level of cytokine suppression was determined for each cytokine by each cannabinoid that was tested and the total averaged suppression for each cannabinoid was determined by dividing the total suppression by the number of the cytokines that were analyzed."}, "[2]": {"test_system": "cytokines induced in mice by LPS", "experiment": "Mouse LPS cytokine model, Example 6C Study 3, omega fatty acids with or without 0.25 mg/kg 1:1 CBD:CBDA", "assay_type": "in vivo", "procedure": "(§1) A series of experiments using a mouse LPS cytokine animal model were performed. In the mouse LPS cytokine animal model, mice were injected with LPS, which induced the immune response shortly after the mice were injected with one of the potential anti-inflammatory compounds under evaluation (the “test compound”). The efficacy of the test compound was evaluated based on its ability to reduce expression levels of inflammatory cytokines that were elevated due to the immune response. The test compounds included a cannabinoid, an omega fatty acid, and a cannabinoid-omega fatty acid composition.\n(§2) The mice were intraperitoneally injected with 0.1 mL of the test compound. One hour later, the mice were intraperitoneally injected with 0.1 mL of LPS in phosphate buffered saline (PBS). Four hours later, a heart puncture was performed and the blood was allowed to clot to generate serum. 0.1 mL of the serum was diluted 1:2 with PBS and stored at −80° C. The serum was then sent to a laboratory where a mouse cytokine array/chemokine array 31-plex (MD31) analysis was performed that analyzed the expression levels of the 32 cytokines/chemokines listed in Table 9, above.\n(§3) For each considered test compound, the ability of the test compound to suppress each inflammatory cytokine was calculated by determining the percent suppression.\n(§4) In this study, the effects of combining 1:1 CBD:CBDA with anti-inflammatory omega unsaturated fatty acids using the mouse LPS cytokine animal model were examined.\n40 female C57BL/6 mice that weighed approximately 20 g each were allowed to acclimate for one week with unlimited access to food and water. On the day of the study, the mice were weighed and split into ten groups of four mice each so that the average weight of each group was as close as possible to each other. […] (9) LPS plus 37.50 mg omega fatty acids (0.1 mL injection of 375.00 mg/mL omega fatty acids diluted in MCT oil, followed 1 hour later by a 0.1 mL injection of LPS in PBS); and (10) LPS plus 37.50 mg omega fatty acids/0.005 mg 1:1 CBD:CBDA (0.1 mL injection of 375.00 mg/mL omega fatty acids/0.05 mg/mL 1:1 CBD:CBDA diluted in MCT oil, followed 1 hour later by a 0.1 mL injection of LPS in PBS).\n24 out of the 32 analyzed cytokines were induced two-fold by LPS. Because the purpose of this experiment was to evaluate the effectiveness of combining 1:1 CBD:CBDA and the anti-inflammatory omega fatty acids, only cytokines that could be suppressed by one of the anti-inflammatory agents used in this study were considered. 24 out of the 24 cytokines whose expression level was induced-two fold or greater by LPS met these criteria."}, "[3]": {"test_system": "cytokines induced in mice by LPS", "experiment": "Mouse LPS cytokine model, Example 6C Study 1, omega fatty acids with or without 0.5 mg/kg 1:1 CBD:CBDA", "assay_type": "in vivo", "details": "0.5 mg/kg (0.01 mg per mouse)", "procedure": "as §1, §2, §3, §4\n32 female C57BL/6 mice that weighed approximately 20 g each were allowed to acclimate for one week with unlimited access to food and water. On the day of the study, the mice were weighed and split into eight groups of four mice each so that the average weight of each group was as close as possible to each other.\nBecause the purpose of this experiment was to evaluate the effectiveness of combining 1:1 CBD:CBDA and the anti-inflammatory omega fatty acids, only cytokines that could be suppressed by one of the anti-inflammatory agents used in this study were considered."}, "[4]": {"test_system": "cytokine levels in differentiated THP-1 cells treated with LPS", "experiment": "THP-1 human cellular LPS cytokine assay, four independent experiments, per cytokine", "assay_type": "cell-based", "details": "LPS 20 ng/mL"}, "[5]": {"details": "0.01 mg dexamethasone in MCT oil"}},
  "data": [
    {"smiles": "C[C@@H]1C[C@H]2[C@@H]3CCC4=CC(=O)C=C[C@]4(C)[C@@]3(F)[C@@H](O)C[C@]2(C)[C@@]1(O)C(=O)CO", "note": "[Dexamethasone, dexamethasone]", "values": [
      {"measurement": "inhibition at 2 µM", "setting": "[1]", "value": 51, "unit": "%"},
      {"measurement": "Percent suppression of elevated cytokine levels, Eotaxin", "setting": "[2]; [5]", "value": 7.26, "unit": "%"},
      {"measurement": "Percent suppression of elevated cytokine levels, IFNγ", "setting": "[2]; [5]", "value": 44.52, "unit": "%"},
      {"measurement": "Percent suppression of elevated cytokine levels, IL-1β", "setting": "[2]; [5]", "value": 35.53, "unit": "%"},
      {"measurement": "Percent suppression of elevated cytokine levels, IL-2", "setting": "[2]; [5]", "value": "−9.46", "unit": "%"},
      {"measurement": "Percent suppression of elevated cytokine levels, IL-6", "setting": "[2]; [5]", "value": 85.95, "unit": "%"},
      {"measurement": "Percent suppression of elevated cytokine levels, IL-7", "setting": "[2]; [5]", "value": 96.66, "unit": "%"},
      {"measurement": "Percent suppression of elevated cytokine levels, IL-10", "setting": "[2]; [5]", "value": 57.41, "unit": "%"},
      {"measurement": "Percent suppression of elevated cytokine levels, IL-12β p40", "setting": "[2]; [5]", "value": 54.79, "unit": "%"},
      {"measurement": "Percent suppression of elevated cytokine levels, IL-12β p70", "setting": "[2]; [5]", "value": "−51.07", "unit": "%"},
      {"measurement": "Percent suppression of elevated cytokine levels, IL-13", "setting": "[2]; [5]", "value": 11.39, "unit": "%"},
      {"measurement": "Percent suppression of elevated cytokine levels, IL-15", "setting": "[2]; [5]", "value": "−13.42", "unit": "%"},
      {"measurement": "Percent suppression of elevated cytokine levels, IL-17", "setting": "[2]; [5]", "value": 63.75, "unit": "%"},
      {"measurement": "Percent suppression of elevated cytokine levels, IP-10", "setting": "[2]; [5]", "value": 42.02, "unit": "%"},
      {"measurement": "Percent suppression of elevated cytokine levels, KC", "setting": "[2]; [5]", "value": 60.10, "unit": "%"},
      {"measurement": "Percent suppression of elevated cytokine levels, LIF", "setting": "[2]; [5]", "value": 47.18, "unit": "%"},
      {"measurement": "Percent suppression of elevated cytokine levels, MCP-1", "setting": "[2]; [5]", "value": 57.29, "unit": "%"},
      {"measurement": "Percent suppression of elevated cytokine levels, MIG", "setting": "[2]; [5]", "value": "−0.29", "unit": "%"},
      {"measurement": "Percent suppression of elevated cytokine levels, MIP-1α", "setting": "[2]; [5]", "value": 47.13, "unit": "%"},
      {"measurement": "Percent suppression of elevated cytokine levels, MIP-1β", "setting": "[2]; [5]", "value": 34.67, "unit": "%"},
      {"measurement": "Percent suppression of elevated cytokine levels, MIP-2", "setting": "[2]; [5]", "value": 37.57, "unit": "%"},
      {"measurement": "Percent suppression of elevated cytokine levels, RANTES", "setting": "[2]; [5]", "value": 37.87, "unit": "%"},
      {"measurement": "Percent suppression of elevated cytokine levels, TNF-α", "setting": "[2]; [5]", "value": 51.43, "unit": "%"},
      {"measurement": "Percent suppression of elevated cytokine levels, VEGF", "setting": "[2]; [5]", "value": 75.98, "unit": "%"},
      {"measurement": "Percent suppression of elevated cytokine levels, AVERAGE SUPPRESSION", "setting": "[2]; 0.01 mg dexamethasone in MCT oil, average of 24 cytokines", "value": 37.59, "unit": "%"},
      {"measurement": "decrease in the cytokine expression levels (average)", "setting": "[2]; 0.01 mg per mouse", "value": 37.59, "unit": "%"},
      {"measurement": "AVERAGE SUPPRESSION", "setting": "[3]", "value": 20.66, "unit": "%"},
      {"measurement": "IFNγ suppression", "setting": "[3]", "value": "−41.63", "unit": "%"},
      {"measurement": "IL-1β suppression", "setting": "[3]", "value": 19.75, "unit": "%"},
      {"measurement": "IL-6 suppression", "setting": "[3]", "value": 64.76, "unit": "%"},
      {"measurement": "IL-10 suppression", "setting": "[3]", "value": 19.59, "unit": "%"},
      {"measurement": "IL-12 p70 suppression", "setting": "[3]", "value": 10.64, "unit": "%"},
      {"measurement": "IL-12β p40 suppression", "setting": "[3]", "value": 39.02, "unit": "%"},
      {"measurement": "IL-15 suppression", "setting": "[3]", "value": 26.30, "unit": "%"},
      {"measurement": "IL-17 suppression", "setting": "[3]", "value": 49.77, "unit": "%"},
      {"measurement": "IP-10 suppression", "setting": "[3]", "value": 24.44, "unit": "%"},
      {"measurement": "KC suppression", "setting": "[3]", "value": 40.63, "unit": "%"},
      {"measurement": "LIF suppression", "setting": "[3]", "value": 29.55, "unit": "%"},
      {"measurement": "MCP-1 suppression", "setting": "[3]", "value": 26.32, "unit": "%"},
      {"measurement": "MIG suppression", "setting": "[3]", "value": 3.78, "unit": "%"},
      {"measurement": "MIP-1α suppression", "setting": "[3]", "value": 26.86, "unit": "%"},
      {"measurement": "MIP-1β suppression", "setting": "[3]", "value": 5.51, "unit": "%"},
      {"measurement": "MIP-2 suppression", "setting": "[3]", "value": 34.16, "unit": "%"},
      {"measurement": "RANTES suppression", "setting": "[3]", "value": "−13.70", "unit": "%"},
      {"measurement": "TNF-α suppression", "setting": "[3]", "value": 26.92, "unit": "%"},
      {"measurement": "EGF suppression", "setting": "[4]; 2 µM", "value": 0.74, "unit": "%"},
      {"measurement": "FGF-β suppression", "setting": "[4]; 2 µM", "value": "−18.23", "unit": "%"},
      {"measurement": "Flt-3L suppression", "setting": "[4]; 2 µM", "value": 57.45, "unit": "%"},
      {"measurement": "IFNγ suppression", "setting": "[4]; 2 µM", "value": 56.19, "unit": "%"},
      {"measurement": "IL-1α suppression", "setting": "[4]; 2 µM", "value": 77.5, "unit": "%"},
      {"measurement": "IL-1β suppression", "setting": "[4]; 2 µM", "value": 67.84, "unit": "%"},
      {"measurement": "IL-4 suppression", "setting": "[4]; 2 µM", "value": 56.32, "unit": "%"},
      {"measurement": "IL-6 suppression", "setting": "[4]; 2 µM", "value": 90.56, "unit": "%"},
      {"measurement": "IL-7 suppression", "setting": "[4]; 2 µM", "value": 64.36, "unit": "%"},
      {"measurement": "IL-10 suppression", "setting": "[4]; 2 µM", "value": 74.07, "unit": "%"},
      {"measurement": "IL-12 p70 suppression", "setting": "[4]; 2 µM", "value": 1.37, "unit": "%"},
      {"measurement": "IL-15 suppression", "setting": "[4]; 2 µM", "value": 29.2, "unit": "%"},
      {"measurement": "IL-18 suppression", "setting": "[4]; 2 µM", "value": "−15.38", "unit": "%"},
      {"measurement": "IP-10 suppression", "setting": "[4]; 2 µM", "value": 64.85, "unit": "%"},
      {"measurement": "MCP-1 suppression", "setting": "[4]; 2 µM", "value": 83.18, "unit": "%"},
      {"measurement": "MIP-1β suppression", "setting": "[4]; 2 µM", "value": 73.58, "unit": "%"},
      {"measurement": "TNFα suppression", "setting": "[4]; 2 µM", "value": 45.33, "unit": "%"},
      {"measurement": "TNFβ suppression", "setting": "[4]; 2 µM", "value": 72.69, "unit": "%"},
      {"measurement": "Average cytokine suppression", "setting": "[4]", "value": 50.17, "unit": "%"}
    ]}
  ]
}
